≈ marks a conversion by molar mass, not a printed value. Calls of active or inactive are those of the source. The rule behind the calls is not given here. Numbered stars: 1 amine (or outer) side, 2 acyl side, 3 side chain; on linkers, the order of the positions; unused ones are H or OH. Square brackets hold non-standard residues; d marks the D form. Peptide text beside a SMILES is read from it. X2 = CC(C)=CCc1cc([C@H](O)[C@H](N[*:1])C(=O)[*:2])ccc1O; X1 = O=C([C@@H](N[*:1])[C@@H](O)c1ccc(O)cc1)[*:2]
Assays:
A2780 = assay: Antiproliferative activity against human A2780 cells at 40 uM by SRB assay; type: functional, cell-based
[1] = Inhibition of TNFalpha-induced NFkappaB activation in HEK293 cells after 6 hrs by luciferase reporter gene assay; type: cell-based; conditions: Homo sapiens, HEK293, 6 h
Staphylococcus aureus [2] = assay: Antibacterial activity against Staphylococcus aureus ATCC 43300 in presence of disulfiram; type: functional
Staphylococcus aureus [3] = assay: Antibacterial activity against Staphylococcus aureus ATCC 43300 at 80 ug/ml; type: functional, organism-based; conditions: dose 80.0 µg/ml
Staphylococcus aureus [4] = assay: Antibacterial activity against Staphylococcus aureus ATCC 43300; type: functional

Row | SMILES | Activity (A2780) | further results
1 | COC(=O)[C@]1(Cc2ccc(O)c(CC=C(C)C)c2)OC(=O)C(OC)=C1c1ccc(O)cc1 | inactive | –
2 | C[C@H](NC(=O)c1cnc2c(n1)c(=O)n(C)c(=O)n2C)C(=O)Nc1ccccc1C(=O)O | inactive | –
3 | CC1=C[C@@H]2/C=C(\C)CCC(O)C(O)C(O)CC(=O)[C@]23C(=O)N[C@@H](CC(C)C)[C@@H]3[C@@H]1C (some centres undefined) | inactive | IC50 [1]: 3.1 µM
4 | COC1=C(c2ccc(O)cc2)[C@@H](Cc2ccc(O)c(CC=C(C)C)c2)OC1=O | inactive | –
5 | CC(C)=CCc1cc([C@H](O)[C@@H]2NC(=O)CNC(=O)[C@H](C(C)C)NC(=O)CNC(=O)[C@@H]3CCCN3C(=O)[C@H](Cc3c[nH]c4ccccc34)NC(=O)CNC2=O)ccc1O (cyclo(GVG[X2]GWP)) | inactive | MIC (Staphylococcus aureus [2]): 10 µg/mL; Activity (Staphylococcus aureus [3]): inactive
6 | Cn1c(=O)c2nc(C(=O)N[C@@H](CO)C(=O)Nc3ccccc3C(=O)O)cnc2n(C)c1=O | inactive | –
7 | O=C(N[C@H](CO)[C@H](O)c1ccc([N+](=O)[O-])cc1)C(Cl)Cl [CHLORAMPHENICOL] | – | MIC (Staphylococcus aureus [2]): 2.5 µg/mL; MIC (Staphylococcus aureus [4]): 6.25 µg/mL (≈ 19.3 µM)
8 | CC(C)[C@@H]1NC(=O)CNC(=O)[C@@H]2CCCN2C(=O)[C@H](Cc2c[nH]c3ccccc23)NC(=O)CNC(=O)[C@H]([C@@H](O)c2ccc(O)cc2)NC(=O)CNC1=O (cyclo(GVG[X1]GWP)) | inactive | MIC (Staphylococcus aureus [2]): 10 µg/mL; Activity (Staphylococcus aureus [3]): inactive; IC50 [1]: 10.3 µM
9 | COC(=O)c1ccccc1NC(=O)[C@H](CC[S+](C)[O-])NC(=O)c1cnc2c(n1)c(=O)n(C)c(=O)n2C (some centres undefined) | inactive | –
10 | [C-]#[N+]c1ccccc1NC(=O)[C@H](C)NC(=O)c1cnc2c(n1)c(=O)n(C)c(=O)n2C | inactive | –
11 | COC1=C(c2ccc(O)cc2)[C@@H](Cc2ccc(O)cc2)OC1=O | inactive | MIC (Staphylococcus aureus [2]): 10 µg/mL; Activity (Staphylococcus aureus [3]): inactive
12 | C[C@H](O)C(=O)[C@@H](C)C/C=C/[C@H]1[C@@H]2O[C@]2(C)[C@@H](C)[C@H]2[C@H](Cc3ccccc3)NC(=O)[C@]21O | inactive | –
13 | Cn1c(=O)c2nc(C(=O)N[C@@H](CC[S+](C)[O-])C(=O)Nc3ccccc3C(=O)O)cnc2n(C)c1=O (some centres undefined) | inactive | –
14 | Cn1c(=O)c2nc(C(=O)N[C@@H](CCC(N)=O)C(=O)Nc3ccccc3C(=O)O)cnc2n(C)c1=O | inactive | –
15 | CC1=C[C@H](/C=C(\C)C[C@@H](O)[C@@H](O)/C=C/C(=O)O)[C@]2(O)C(=O)N[C@@H](CC(C)C)[C@@H]2[C@@H]1C | inactive | –

— ChEMBL document CHEMBL4665684, “Antibacterial and NF-κB Inhibitory Lumazine Peptides, Aspochalasin, γ-Butyrolactone Derivatives, and Cyclic Peptides from a Hawaiian Aspergillus flavipes” (J Nat Prod, 2020)
